Data reported in patent US20150250769A1, “METHODS AND COMPOSITIONS FOR INHIBITING RHO/MRTF-MEDIATED DISEASES AND CONDITIONS” (THE REGENTS OF THE UNIVERSITY OF MICHIGAN, priority 2014, published 2015).
Entries after “also recorded” stand apart in the source; their conditions may differ.

Columns and labels:
[1] = biological target: Rho (MRTF/SRF-regulated gene transcription, SRE-Luciferase); test: SRE-Luciferase reporter, Rho inhibition; format: cell-based
Protocol: In the course of these studies, the rho transcription reporter method that uses the rho-specific SRE-Luciferase was developed. This transcriptional reporter method, described in detail therein, was used for screening a small chemical library for possible rho inhibitors (Evelyn et al., Mol Canc. Ther. 6:2249-60, 2007; herein incorporated by reference in its entirety). Additional inhibitors were identified as described below.
CCG-1423 was a cellular IC50 of ˜1 uM to inhibit SRE-Luciferase expression (Evelyn, C. R., Wade, S. M., Wang, Q., Wu, M., Iniguez-Lluhi, J. A., Merajver, S. D., and Neubig, R. R. 2007. CCG-1423: a small-molecule inhibitor of RhoA transcriptional signaling. Mol Cancer Ther 6:2249-2260). It has been used in many labs as a tool compound for blocking MRTF/SRF-regulated gene transcription (Sandbo et al., et al., 2011. Am J Physiol Lung Cell Mol Physiol 301:L656-666; Sandbo, et al., 2009. Am J Respir Cell Mol Biol 41:332-338; Evelyn, et al., 2007. Mol Cancer Ther 6:2249-2260; Sandbo et al., 2013. J Biol Chem 288:15466-15473; Prencipe et al., 2013. Prostate 73:743-753; Sakai et al., 2013. FASEB J 27:1830-1846; Buller et al., 2012. Glia 60:1906-1914; Chong et al., 2012. PLoS One 7:e40966; Jin et al., 2011. J Clin Invest 121:918-929; Mae et al., 2010. Biochem Biophys Res Commun 393:877-882; Evelyn et al., 2010. Bioorg Med Chem Lett 20:665-672; Lu et al., 2009. Curr Med Chem 16:1355-1365). CCG-1423 acts by preventing nuclear accumulation of MRTF (Evelyn et al, supra; Jin et al., supra).

cellular migration = test: Cellular migration; format: cell-based; conditions: FIG. 5
Acute cellular toxicity = format: cell-based; conditions: FIG. 2B; compared with CCG-1423
[2] = system: COL1A2 and ACTA2 (αSMA) mRNA; test: LPA-induced COL1A2 and ACTA2 mRNA in NIH-3T3 cells; format: cell-based
Source text: (§1) A & B) CCG-203971 inhibits LPA-induced COL1A2 and ACTA2 (αSMA) mRNA in NIH-3T3 cells.

skin fibrosis = test: Bleomycin skin injury (dermal fibrosis) model; format: in vivo; conditions: mouse; 100 mg/kg
Source text: Mice are weighed once prior to study start. Dermal fibrosis is induced in Groups 2-5 by daily intradermal injections of bleomycin over 14 days. Group 1 will receive vehicle 1 (PBS) over the same days. Daily therapeutic dosing with either vehicle 2 or CCG-58150 by oral gavage coincide with the intradermal injection study days. Mice are anesthetized using isoflurane during intradermal injections. The back is shaved and the injection site ( 1 cm2) cleaned with three alternating passes of chlorhexidine and warm, sterile saline or water. The periphery of the injection site is circled using a […] marker as a visual aid. Bleomycin is dissolved in sterile PBS at a concentration of 1 mg/ml, sterile filtered, and frozen in aliquots appropriately sized for the daily injections prior to the start of the dosing period. 100 μl of bleomycin or PBS (Vehicle 1) is administered to anesthetized mice by intradermal injection using a 0.5 cc TB syringe with a 27 G needle. Following bleomycin or vehicle administration, test substance (CCG-58150) or vehicle 2 (20% DMSO/30% PEG/50% PBS) is administered by oral gavage at 10 μL/gram of body weight. […] Images are collected on an Evos microscope and skin thickness and intensity of fibrosis of two distinct images from each animal is analyzed using ImageJ. […]

[3] = In vivo tolerability (general statement); conditions: compared with CCG-1423
human dermal fibroblasts = test: Myofibroblast differentiation / αSMA staining in dermal fibroblasts (TGFβ-induced normal, SSc); format: cell-based; conditions: for myofibroblast differentiation / phenotype (αSMA): in vitro, TGFβ-stimulated normal human dermal fibroblasts and SSc fibroblasts; for potency to reduce alpha-SMA staining, human primary dermal fibroblasts: 72-hour assay
Protocol: B-D) Human dermal fibroblasts were treated with TGFβ (10 ng/ml) for 3 days with various concentrations of CCG-58150.
as §1

peritoneal fibrosis = conditions: Sakai et al. 2013; cited from earlier work
[4] = system: Rho (MRTF/SRF-regulated gene transcription, SRE-Luciferase); conditions: Evelyn et al. 2007; cited from earlier work
[5] = Preliminary tolerability study in normal mice; format: in vivo; conditions: 10 mg/kg i.p. daily for 2-weeks
Protocol: The experiments shown in FIG. 4 are repeated CCG-58150 and derivatives thereof. A range of doses (0.1, 1, and 10 mg/kg) is used to increase the likelihood of finding a well-tolerated dose that is effective.

CTGF mRNA = CTGF mRNA by qRT-PCR in LPA-stimulated NIH3T3 cells; format: cell-based
[6] = Stability in liver microsomes; format: in vitro ADME

Row | Structure (SMILES) | IC50 [1] | further results
1 | Cc1cccc(-c2nnc(SCCC(=O)O)o2)c1 [compound 58146] | – | potency in SRE-luciferase ([1]; FIG. 2C, listed as CCG-58146): nM IC50; also recorded: markedly higher potency; cellular migration (cellular migration): inhibition of cellular migration
2 | COc1ccc(-c2nnc(SCCC(=O)O)n2C)cc1 [compound 107983] | > 100 µM | –
3 | CC(C)(C)NC(=O)CSc1nnc(-c2ccc(Cl)cc2Cl)o1 [compound 215029] | > 100 µM | –
4 | COc1ccc(-c2nnc(SCCC(=O)O)[nH]2)cc1 [compound 215104] | > 100 µM | –
5 | O=C(O)CCSc1nc2ccccc2n1Cc1ccccc1 [compound 111085] | > 100 µM | –
6 | O=C(O)CCSc1nc(-c2ccccc2)cc(=O)[nH]1 [compound 211914] | > 100 µM | –
7 | O=C(Nc1ccc(Cl)cc1)C1CCCN(C(=O)c2cccc(-c3ccco3)c2)C1 (stereo not shown) [CCG-203971] | – | acute cellular toxicity (Acute cellular toxicity): less acute cellular toxicity; also recorded: reduced acute cellular toxicity; LPA-induced COL1A2 and ACTA2 (αSMA) mRNA [2]: inhibits; fibrosis in bleomycin skin injury model (skin fibrosis): prevented fibrosis; also recorded: very strongly significant effect; also recorded: prevents skin fibrosis; cellular migration (cellular migration): inhibition of cellular migration; tolerability in vivo [3]: much better tolerated in vivo; hepatic clearance (In vivo pharmacokinetics; in vivo): rapid hepatic clearance; pharmacokinetics (overall) (In vivo pharmacokinetics; in vivo): poor pharmacokinetics; oral absorption (In vivo pharmacokinetics; in vivo, po): low oral absorption; potency relative to perfenidone (human dermal fibroblasts; FIG. 4C): 100 ×; myofibroblast differentiation / phenotype (αSMA) (human dermal fibroblasts): reverses the myofibroblast phenotype; also recorded: Suppression of myofibroblast activation
8 | Cc1occc1-c1nnc(SCCC(=O)O)o1 [compound 123873] | > 100 µM | –
9 | CCOC(=O)CSc1nnc(-c2ccc(Cl)cc2Cl)o1 [compound 215028] | > 100 µM | –
10 | CC(ONC(=O)c1cc(C(F)(F)F)cc(C(F)(F)F)c1)C(=O)Nc1ccc(Cl)cc1 (stereo not shown) [CCG-1423] | – | activity in peritoneal fibrosis model (peritoneal fibrosis): in vivo activity; reduction of SRF-mediated transcription versus ROCK inhibitors [4]: more effective than ROCK inhibitors
11 | O=C(O)CCSc1nnc(-c2ccc(Cl)cc2Cl)o1 [compound 58150] | 0.004 µM | tolerability [5]: tolerated; potency in a 24-hour assay in NIH 3T3 cells (CTGF mRNA; 24-hour assay): nM potency; IC50 (CTGF mRNA; Mus musculus, FIG. 3, NIH3T3 cells stimulated with LPA, read-out: IC50, inhibition of expression of endogenous CTGF mRNA): 0.001 µM; stability in liver microsomes [6]: highly favorable stability; cellular migration (cellular migration): inhibition of cellular migration; blood levels 24 hours after a single oral dose relative to in vitro IC50 (In vivo pharmacokinetics; 24 hours, single oral dose): over 10 fold; pharmacokinetics (overall) (In vivo pharmacokinetics; in vivo): very good in vivo pharmacokinetics; potency to reduce alpha-SMA staining, human primary dermal fibroblasts (human dermal fibroblasts; listed as CCG-58150): fM-pM; potency to reduce alpha-SMA staining, human primary dermal fibroblasts (human dermal fibroblasts; listed as CCG-518150): fM-pM potency; myofibroblast differentiation / phenotype (αSMA) (human dermal fibroblasts): αSMA inhibition; myofibroblast differentiation / phenotype (αSMA) (human dermal fibroblasts; listed as CCG-58150): blocks myofibroblast differentiation at pM concentrations; maximum suppression, inhibition of % αSMA positive cells (human dermal fibroblasts; maximum effect): 60%
12 | c1ccc(-c2nnc(SCCC3OCCCO3)o2)cc1 [compound 20321] | > 100 µM | –
13 | COCCNC(=O)CCSc1nnc(-c2ccc(Cl)cc2Cl)o1 [compound 215160] | > 100 µM | –
14 | O=C(O)CCSc1nnc(-c2ccncc2)o1 [compound 123867] | > 100 µM | –
15 | O=C(O)CSc1nnc(-c2ccc(Cl)cc2Cl)o1 [compound 215027] | > 100 µM | –
16 | O=C(O)CCCc1nnc(-c2ccc(Cl)cc2Cl)o1 [compound 222620] | > 100 µM | –

More lines, main results first:

Row | IC50 [1] | Structure (SMILES) | further results
17 | 24 µM | O=C(O)CCOc1nnc(-c2ccc(Cl)cc2Cl)s1 [compound 215240] | –
18 | > 100 µM | Cc1cccc(-c2nnc(SCC(N)=O)o2)c1 [compound 211912] | –
19 | 10 µM | COc1cc(Cl)cc(Cl)c1-c1nnc(SCCC(=O)O)o1 [compound 222687] | –
20 | > 100 µM | CCCN(CCC)C(=O)CSc1nnc(-c2cccc(C)c2)o1 [compound 211913] | –
21 | 0.023 µM | COc1cc(C)ccc1-c1nnc(SCCC(=O)O)o1 [compound 215201] | –
22 | 87 µM | O=C(O)CCSc1nnc(-c2cccnc2)o1 [compound 123869] | –
23 | 43 µM | Cc1cccc(-c2nnc(SCC(=O)O)o2)c1 [compound 123860] | –
24 | 5.2 µM | COC(=O)CSc1nnc(-c2ccc(C)cc2)o1 [compound 105557] | –
25 | 0.0086 µM | COc1c(Cl)ccc(-c2nnc(SCCC(=O)O)o2)c1Cl [compound 222623] | –
26 | 0.003 µM | O=C(O)CCCCSc1nnc(-c2ccc(Cl)cc2Cl)o1 [compound 232503, 5-((5-(2,4-dichlorophenyl)-1,3,4-oxadiazol-2-yl)thio)pentanoic acid] | –
27 | 6.4 µM | O=C(O)CCSc1nnc(-c2cccc(Br)c2)o1 [compound 123853] | –
28 | 0.025 µM | O=C(O)CCSc1nnc(-c2ccc(F)cc2Cl)o1 [compound 232002] | –
29 | 6.7 µM | Cc1ccc(-c2nnc(SCC(=O)O)o2)cc1 [compound 114898] | –
